# Laboratory results: patent publication US8592581B2, “Trisubstituted purine derivatives” (Cyclacel Limited, priority 2007, dated 2013)
# Tests used:
# MESSA-Dx5 = assay: Alamar blue cytotoxicity assay MESSA-Dx5; format: cell-based; details: Homo sapiens, MES-SA/Dx5; 72 hours; read-out: cellular cytotoxicity IC50 MESSA-Dx5
# Description: (§1) In order to determine the cellular potency of the compounds, the cytotoxicity of each compound was determined against a range of cell lines. Standard cytotoxicity methods were performed as follows: cells were seeded in 96-well plates appropriately for their doubling time (2-5000 cells per well) in RPMI or DMEM media containing 10% FCS and incubated overnight at 37° C., 5% CO2. The media was removed and 100 μl fresh media containing increasing concentrations of appropriate compound was added and the cells incubated for 72 hours at 37° C., 5% CO2. A 10% stock of alamar blue (Roche, Lewes, United Kingdom) was prepared in medium and 100 μl added to the cells which were incubated for 2 hours. Absorbance was measured on the Wallac Victor 2 1420 multi-label counter at 544-595 nm.
# CYP2D6 [1] = target: T1, CYP2D6 (Homo sapiens (Human), UniProt P10635); assay: CYP2D6 inhibition, human liver microsomes, dextromethorphan; format: in vitro ADME
# T1 sequence (P10635 whole entry): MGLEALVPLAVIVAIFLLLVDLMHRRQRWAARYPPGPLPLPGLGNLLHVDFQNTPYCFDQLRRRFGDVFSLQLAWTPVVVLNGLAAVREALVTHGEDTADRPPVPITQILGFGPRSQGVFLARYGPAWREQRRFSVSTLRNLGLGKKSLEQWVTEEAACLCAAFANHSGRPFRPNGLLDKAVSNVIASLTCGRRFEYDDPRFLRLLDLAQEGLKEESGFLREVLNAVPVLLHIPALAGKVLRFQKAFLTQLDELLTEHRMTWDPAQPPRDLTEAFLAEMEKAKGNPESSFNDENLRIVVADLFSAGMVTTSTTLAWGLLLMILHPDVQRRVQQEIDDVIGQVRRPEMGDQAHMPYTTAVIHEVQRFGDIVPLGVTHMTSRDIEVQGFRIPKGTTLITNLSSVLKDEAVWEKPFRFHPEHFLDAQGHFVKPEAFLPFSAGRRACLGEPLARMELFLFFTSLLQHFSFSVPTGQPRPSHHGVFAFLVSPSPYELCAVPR
# Description: Six test compound concentrations (0.05, 0.25, 0.5, 2.5, 5, 25 μM in DMSO; final DMSO concentration=0.25%) were incubated with human liver microsomes (0.5 mg/mL) and NADPH (1 mM) in the presence of the probe substrate dextromethorphan (5 μM) for 30 min at 37° C. The selective CYP2D6 inhibitor, quinidine, was screened alongside the test compounds as a positive control.
# For the CYP1A incubations, the reactions were terminated by the addition of methanol, and the formation of the metabolite, resorufin, was monitored by fluorescence (excitation wavelength=535 nm, emission wavelength=595 nm). For the CYP2C9, CYP2C19, CYP2D6, and CYP3A4 incubations, the reactions were terminated by the addition of methanol containing internal standard. The samples were then centrifuged, and the supernatants were combined, for the simultaneous analysis of 4-hydroxytolbutamide, 4-hydroxymephenyloin, dextrorphan, and 1-hydroxymidazolam plus internal standard by LC-MS/MS using generic LC-MS/MS conditions. Formic acid in deionised water (final concentration=0.1%) was added to the final sample prior to analysis.
# H292 = assay: Alamar blue cytotoxicity assay H292; format: cell-based; details: Homo sapiens, NCI-H292; 72 hours; read-out: cellular cytotoxicity IC50 H292
# Description: as §1
# CYP2D6 [2] = target: T1, CYP2D6; assay: Cytochrome P450 substrate identification (Bactosomes) CYP2D6; format: in vitro ADME; details: pH 7.4, 5 μM test compound, up to 45 min, read-out: half life in the presence of CYP2D6
# Description: (§2) cDNA expressed human CYP450 enzyme preparations co-expressed with human NADPH cytochrome P450 reductase (Bactosomes™) were supplied by Cypex Ltd. Bactosomes™ (final P450 concentration CYP1A2 100 pmol/mL, CYP2C8 50 pmol/mL, CYP2C9 25 pmol/mL, CYP2C19 100 pmol/mL, CYP2D6 50 pmol/mL and CYP3A4 25 pmol/mL), 0.1M phosphate buffer pH7.4 and test compound (final substrate concentration=5 μM; final DMSO concentration=0.25%) were pre-incubated at 37° C. prior to the addition of NADPH (final concentration=1 mM) to initiate the reaction. Incubations were also performed using control bactosomes (no P450 enzymes present) to reveal any non-enzymatic degradation. The final incubation volume was 25 μL. Compounds known to be metabolised specifically by each CYP450 isoform were used as control compounds.
# (§3) Each compound was incubated singly for 0, 5, 15, 30 and 45 min with each CYP isoform. The reactions were stopped by the addition of 50 μL methanol containing internal standard at the appropriate time points. The incubation plates were centrifuged at 2500 rpm for 20 min at 4° C. to precipitate the protein. Following protein precipitation, the sample supernatants were combined in cassettes of up to four compounds and analysed using generic LC-MS/MS conditions.
# (§4) The In peak area ratio (which has been corrected for any loss in the incubations with the control bactosomes) was plotted against time and the gradient of the line determined.
# (§5) The elimination rate constant (k)=(−gradient)
# A2780 = assay: Alamar blue cytotoxicity assay A2780; format: cell-based; details: Homo sapiens, 72 hours, read-out: cellular cytotoxicity IC50 A2780
# Description: as §1
# CYP2C19 = CYP2C19 (Homo sapiens (Human), UniProt P33261); assay: Cytochrome P450 substrate identification (Bactosomes) CYP2C19; format: in vitro ADME; details: pH 7.4, 5 μM test compound, up to 45 min, read-out: half life in the presence of CYP2C19
# CYP2C19, sequence (P33261 whole entry): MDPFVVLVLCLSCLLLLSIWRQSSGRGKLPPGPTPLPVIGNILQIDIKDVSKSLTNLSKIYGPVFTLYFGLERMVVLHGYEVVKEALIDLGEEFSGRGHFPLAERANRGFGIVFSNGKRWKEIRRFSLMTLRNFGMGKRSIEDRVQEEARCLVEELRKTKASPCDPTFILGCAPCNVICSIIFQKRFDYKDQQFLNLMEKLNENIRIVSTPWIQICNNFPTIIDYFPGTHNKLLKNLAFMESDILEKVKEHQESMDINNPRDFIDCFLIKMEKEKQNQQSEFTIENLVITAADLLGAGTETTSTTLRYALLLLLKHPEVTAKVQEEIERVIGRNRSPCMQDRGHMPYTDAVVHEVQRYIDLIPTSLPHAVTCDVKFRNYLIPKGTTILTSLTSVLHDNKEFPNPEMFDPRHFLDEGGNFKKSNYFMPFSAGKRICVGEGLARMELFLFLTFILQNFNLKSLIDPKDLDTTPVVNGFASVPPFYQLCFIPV
# Description: as §2, §3, §4, §5
# CYP2C8 = CYP2C8 (Homo sapiens (Human), UniProt P10632); assay: Cytochrome P450 substrate identification (Bactosomes) CYP2C8; format: in vitro ADME; details: pH 7.4, 5 μM test compound, up to 45 min, read-out: half life in the presence of CYP2C8
# CYP2C8, sequence (P10632 whole entry): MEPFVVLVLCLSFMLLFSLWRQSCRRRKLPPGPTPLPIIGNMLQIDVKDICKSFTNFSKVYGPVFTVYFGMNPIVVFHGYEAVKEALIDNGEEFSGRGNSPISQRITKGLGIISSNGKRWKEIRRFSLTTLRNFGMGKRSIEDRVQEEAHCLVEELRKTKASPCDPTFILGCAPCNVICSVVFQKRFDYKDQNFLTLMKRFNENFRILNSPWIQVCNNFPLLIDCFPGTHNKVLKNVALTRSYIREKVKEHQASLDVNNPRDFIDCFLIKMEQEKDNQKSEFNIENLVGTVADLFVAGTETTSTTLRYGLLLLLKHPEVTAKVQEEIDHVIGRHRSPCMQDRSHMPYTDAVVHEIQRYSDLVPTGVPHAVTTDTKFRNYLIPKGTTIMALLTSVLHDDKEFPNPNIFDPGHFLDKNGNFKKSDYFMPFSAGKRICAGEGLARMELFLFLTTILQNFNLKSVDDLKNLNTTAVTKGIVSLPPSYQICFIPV
# Description: as §2, §3, §4, §5
compound,measurement,setting,value
CC[C@H](Nc1nc(NCc2cnc(C)cc2C)c2ncn(C(C)C)c2n1)[C@@H](C)O [Compound [1]],IC50,MESSA-Dx5,1210 nM
same,IC50,CYP2D6 [1],> 25 µM
same,IC50,H292,370 nM
same,half-life at 5 μM,CYP2D6 [2],> 45 min
same,IC50,A2780,410 nM
same,half-life at 5 μM,CYP2C19,> 45 min
same,half-life at 5 μM,CYP2C8,> 45 min
